Experimental data taken from US8192962B2, “Processes for detecting toxic substances” (Daikin Industries, Ltd., priority 2001, dated 2012).

Test system: Genes belonging to other category
Assay: DNA chip mRNA expression in yeast, genes belonging to other category (Table 9)
Assay type: cell-based, Saccharomyces cerevisiae S288C
Procedure: Yeast (Saccharomyces cerevisiae S288C (α SUC2mal mel gap2 CUP1)) were incubated at 25° C. on YPD medium (yeast extract 1%, polypepton 2%, glucose 2%). One of toxic chemical substances was added to the cells at logarithmic growth phase, and the cells were further incubated for two hours. Cells were cultured without any chemical substance in the same condition, and were used as control. Concentrations of the chemical substances were defined to inhibit the growth of the yeast but not lead to death.
After completion of the incubation, the culture was centrifuged to collect the cells. To the cells, sodium acetate buffer (50 mM sodium acetate, 10 mM EDTA, 1% SDS) was added, and the mixture was shaken at 65° C. for five minutes, followed by returning to room temperature, and obtaining the supernatant, of which the procedures were repeated two times. To the supernatant, ½ amount of a solution of phenol/chloroform was added, and the mixture was centrifuged to give a supernatant, which was added with an equal amount of chloroform, and the mixture was centrifuged to give a supernatant. To the supernatant, an equal amount of isopropanol containing 0.3 M sodium acetate was added, and the mixture was allowed to stand at room temperature for 30 minutes, after which the mixture was centrifuged to give a sediment of the whole RNAs. Seventy % ethanol was added to the sediment, and the mixture was again centrifuged to give a sediment, which was then dried and dissolved in water. mRNA was isolated from the whole RNAs as followings. In view of the fact that a poly A chain is attached to the 3′ terminus of mRNA, a polynucleotide having a poly T structure which was immobilized on the surface of latex beads was used to trap the mRNA, and then the mRNA was washed and eluted with spine column (Oligotex-dT30<Super>mRNA Purification Kit, Takara). Reverse transcription of the mRNA was conducted with a reverse transcriptase (Super Script II Reverse Transcriptase; catalogue No. 18064-014, GibcoBRL) using fluorescence-labeled nucleotides to give cDNAs that were introduced with Cy3-dUTP or Cy5-dUTP during the reverse transcription.
The labeled cDNAs were dissolved in TE buffer (10mM Tris-HCl/1 mM EDTA, pH8.0), and the solution was dropped on the DNA chip containing the whole genes of yeast (DNA Chip Research Inc. Japan) so that the cDNAs were hybridized on the DNA chip at 65° C. for over 12 hours. The fluoresces intensity of the DNA chip was read with a scanner, and the ratio relative to the fluorescence intensity resulting from the absence of chemical substance was estimated as the following, which is shown in Tables 1 to 9: […]

With `Oc1cc(Cl)c(Cl)cc1Cl` [(6), 2,4,5-trichlorophenol] the “The level of expressed mRNA in the presence of chemical substance/The level of expressed mRNA in the absence of chemical substance” value (yeast gene YER039C) was 1.6, the “The level of expressed mRNA in the presence of chemical substance/The level of expressed mRNA in the absence of chemical substance” value (yeast gene YER078C) was 1.4 and the “The level of expressed mRNA in the presence of chemical substance/The level of expressed mRNA in the absence of chemical substance” value (yeast gene YER094C) was 1.1. For the same molecule, the “The level of expressed mRNA in the presence of chemical substance/The level of expressed mRNA in the absence of chemical substance” value (yeast gene YER107C) was 2.5, the “The level of expressed mRNA in the presence of chemical substance/The level of expressed mRNA in the absence of chemical substance” value (yeast gene YER130C) was 2.7 and the “The level of expressed mRNA in the presence of chemical substance/The level of expressed mRNA in the absence of chemical substance” value (yeast gene YFL022C) was 0.9. The “The level of expressed mRNA in the presence of chemical substance/The level of expressed mRNA in the absence of chemical substance” value (yeast gene YFL028C) was 1.7, the “The level of expressed mRNA in the presence of chemical substance/The level of expressed mRNA in the absence of chemical substance” value (yeast gene YFL038C) was 1.3 and the “The level of expressed mRNA in the presence of chemical substance/The level of expressed mRNA in the absence of chemical substance” value (yeast gene YFL043C) was 1.8. For the same molecule, the “The level of expressed mRNA in the presence of chemical substance/The level of expressed mRNA in the absence of chemical substance” value (yeast gene YFR051C) was 0.2, the “The level of expressed mRNA in the presence of chemical substance/The level of expressed mRNA in the absence of chemical substance” value (yeast gene YGL056C) was 0.4 and the “The level of expressed mRNA in the presence of chemical substance/The level of expressed mRNA in the absence of chemical substance” value (yeast gene YGL093W) was 1.0. For the same molecule, the “The level of expressed mRNA in the presence of chemical substance/The level of expressed mRNA in the absence of chemical substance” value (yeast gene YGL150C) was 1.1, the “The level of expressed mRNA in the presence of chemical substance/The level of expressed mRNA in the absence of chemical substance” value (yeast gene YGL158W) was 0.4 and the “The level of expressed mRNA in the presence of chemical substance/The level of expressed mRNA in the absence of chemical substance” value (yeast gene YGL166W) was 1.0. For the same molecule, the “The level of expressed mRNA in the presence of chemical substance/The level of expressed mRNA in the absence of chemical substance” value (yeast gene YGL229C) was 2.2, the “The level of expressed mRNA in the presence of chemical substance/The level of expressed mRNA in the absence of chemical substance” value (yeast gene YGR136W) was 1.1 and the “The level of expressed mRNA in the presence of chemical substance/The level of expressed mRNA in the absence of chemical substance” value (yeast gene YGR189C) was 0.5. The “The level of expressed mRNA in the presence of chemical substance/The level of expressed mRNA in the absence of chemical substance” value (yeast gene YGR213C) was 4.1, the “The level of expressed mRNA in the presence of chemical substance/The level of expressed mRNA in the absence of chemical substance” value (yeast gene YGR253C) was 1.4 and the “The level of expressed mRNA in the presence of chemical substance/The level of expressed mRNA in the absence of chemical substance” value (yeast gene YGR257C) was 2.1. The “The level of expressed mRNA in the presence of chemical substance/The level of expressed mRNA in the absence of chemical substance” value (yeast gene YHR004C) was 2.0, the “The level of expressed mRNA in the presence of chemical substance/The level of expressed mRNA in the absence of chemical substance” value (yeast gene YHR027C) was 0.4 and the “The level of expressed mRNA in the presence of chemical substance/The level of expressed mRNA in the absence of chemical substance” value (yeast gene YHR028C) was 0.9. The “The level of expressed mRNA in the presence of chemical substance/The level of expressed mRNA in the absence of chemical substance” value (yeast gene YHR071W) was 2.0, the “The level of expressed mRNA in the presence of chemical substance/The level of expressed mRNA in the absence of chemical substance” value (yeast gene YHR082C) was 0.8 and the “The level of expressed mRNA in the presence of chemical substance/The level of expressed mRNA in the absence of chemical substance” value (yeast gene YHR136C) was 1.4. The “The level of expressed mRNA in the presence of chemical substance/The level of expressed mRNA in the absence of chemical substance” value (yeast gene YHR139C) was 1.9, the “The level of expressed mRNA in the presence of chemical substance/The level of expressed mRNA in the absence of chemical substance” value (yeast gene YHR142W) was 1.2 and the “The level of expressed mRNA in the presence of chemical substance/The level of expressed mRNA in the absence of chemical substance” value (yeast gene YHR160C) was 1.0. For the same molecule, the “The level of expressed mRNA in the presence of chemical substance/The level of expressed mRNA in the absence of chemical substance” value (yeast gene YHR166C) was 1.8, the “The level of expressed mRNA in the presence of chemical substance/The level of expressed mRNA in the absence of chemical substance” value (yeast gene YHR205W) was 1.0 and the “The level of expressed mRNA in the presence of chemical substance/The level of expressed mRNA in the absence of chemical substance” value (yeast gene YIL015W) was 0.4. The “The level of expressed mRNA in the presence of chemical substance/The level of expressed mRNA in the absence of chemical substance” value (yeast gene YIL075C) was 0.8, the “The level of expressed mRNA in the presence of chemical substance/The level of expressed mRNA in the absence of chemical substance” value (yeast gene YIL123W) was 0.5 and the “The level of expressed mRNA in the presence of chemical substance/The level of expressed mRNA in the absence of chemical substance” value (yeast gene YIL129C) was 0.3. For the same molecule, the “The level of expressed mRNA in the presence of chemical substance/The level of expressed mRNA in the absence of chemical substance” value (yeast gene YIL140W) was 0.5, the “The level of expressed mRNA in the presence of chemical substance/The level of expressed mRNA in the absence of chemical substance” value (yeast gene YIL142W) was 1.1 and the “The level of expressed mRNA in the presence of chemical substance/The level of expressed mRNA in the absence of chemical substance” value (yeast gene YIR009W) was 1.4. For the same molecule, the “The level of expressed mRNA in the presence of chemical substance/The level of expressed mRNA in the absence of chemical substance” value (yeast gene YJL073W) was 2.0, the “The level of expressed mRNA in the presence of chemical substance/The level of expressed mRNA in the absence of chemical substance” value (yeast gene YJL089W) was 1.6 and the “The level of expressed mRNA in the presence of chemical substance/The level of expressed mRNA in the absence of chemical substance” value (yeast gene YJL116C) was 3.4.
